In ChEMBL document CHEMBL5725952, “Imidazopyridine macrocycles as inhibitors of human immunodeficiency virus replication” (2018):

Experiment: Inhibition of HIV Replication: A recombinant NL-RLuc proviral clone was constructed in which a section of the nef gene from NL4-3 was replaced with the Renilla Luciferase gene. This virus is fully infectious and can undergo multiple cycles of replication in cell culture. In addition, the luciferous reporter provides a simple and easy method for quantitating the extent of virus growth and consequently, the antiviral activity of test compounds. The plasmid pNLRLuc contains the proviral NL-Rluc DNA cloned into pUC18 at the PvuII site. The NL-RLuc virus was prepared by transfection of 293T cells with the plasmid pNLRLuc. Transfections were performed using the LipofectAMINE PLUS kit from Invitrogen (Carlsbad, Calif.) according to the manufacturer and the virus generated was titered in MT-2 cells. For susceptibility analyses, the titrated virus was used to infect MT-2 cells in the presence of compound, and after 5 days of incubation, cells were processed and quantitated for virus growth by the amount of expressed luciferase. Assay media was RPMI 1640 supplemented with 10% heat inactivated fetal bovine serum (FBS), 100 units/ml penicillin G/100 units/ml streptomycin, 10 mM HEPES buffer pH 7.55 and 2 mM L-glutamine. The results from at least 2 experiments were used to calculate the EC50 values. Luciferase was quantitated using the Dual Luciferase kit from Promega (Madison, Wis.). […]
Format: cell-based
Conditions: HEK-293T

With `Cc1c([C@H](OC(C)(C)C)C(=O)O)c2n3cc(nc3c1C)-c1cccc(c1)-c1cc(F)c(F)cc1O[C@@H](C)COCCOC1(C)CCN2CC1` the EC50 was < 100 nM.
Work on `Cc1c([C@@H](OC(C)(C)C)C(=O)O)c2n3cc(nc3c1C)-c1cccc(c1)-c1cc(F)c(F)cc1O[C@@H](C)COCCOC1(C)CCN2CC1` yielded an EC50 of 550 nM.
